In assay [1] the test system is Bs-preQ1-RS (RNA, riboswitch) AGAGGUUCUAGCUACACCCUCUAUAAAAAACUAA
The assay can be described thus: UV photocrosslinking, denaturing PAGE. Particulars: 100 mM K+, 2 mM Mg2+, 50 mM Tris pH 7.5, 5% DMSO, room temperature, 5 µM RNA, 250 µM compound, covalent.

In assay [2] the test system is Cy5-Bs-preQ1-RS (RNA, riboswitch) AGAGGUUCUAGCUACACCCUCUAUAAAAAACUAA
The assay can be described thus: microscale thermophoresis. To be noted: 100 mM K+, 2 mM Mg2+, 50 mM Tris-HCl pH 7.5, 5% DMSO, room temperature, 100 nM RNA.

Assay [3] relates to Cy5-Tt-preQ1-RS (RNA, riboswitch) CUGGGUCGCAGUAACCCCAGUUAACAAAACAAG
The assay can be described thus: microscale thermophoresis. Particulars: 100 mM K+, 2 mM Mg2+, 50 mM Tris-HCl pH 7.5, 5% DMSO, room temperature, 100 nM RNA.

Assay [4] concerns Tt-preQ1-RS (RNA, riboswitch) CUGGGUCGCAGUAACCCCAGUUAACAAAACAAG
The assay can be described thus: X-ray crystallography, 2.80 Å. To be noted: without photocrosslinking.

The subject of assay [5] is Tt-preQ1-RS (ab 13_14) (RNA, riboswitch, abasic at 13 and 14) CUGGGUCGCAGUNNCCCCAGUUAACAAAACAAG
The assay can be described thus: X-ray crystallography, 1.57 Å. To be noted: without photocrosslinking.

Assay [6] has as its system SAM-II-WT-RS (RNA, riboswitch) UCGCGCUGAUUUAACCGUAUUGCAAGCGCGUGAUAAAUGUAGCUAAAAAGGG
The assay can be described thus: UV photocrosslinking, denaturing PAGE. Particulars: 100 mM K+, 2 mM Mg2+; 50 mM Tris pH 7.5; 50:1 compound:RNA; covalent crosslink not detected.

In assay [7] the test system is miR21-hp (RNA, miRNA) GGGUUGACUGUUGAAUCUCAUGGCAACCC
As to the kind of experiment: UV photocrosslinking, denaturing PAGE. To be noted: 100 mM K+, 2 mM Mg2+; 50 mM Tris pH 7.5; 50:1 compound:RNA; covalent crosslink not detected.

The test system of assay [8] is Ss-preQ1-RS (RNA, riboswitch) AGAGGUUCCUAGCUGAUACCCUCUAUAAAAAACUA
As to the kind of experiment: UV photocrosslinking, denaturing PAGE. To be noted: 100 mM K+, 2 mM Mg2+; 50 mM Tris pH 7.5, room temperature; 5 µM RNA, 25-250 µM compound; covalent.

Assay [9] has as its system Tt-preQ1-RS(G4A) (RNA, riboswitch) CUGAGUCGCAGUAACCCCAGUUAACAAAACAAG
As to the kind of experiment: UV photocrosslinking, denaturing PAGE. Particulars: 100 mM K+, 2 mM Mg2+; 50 mM Tris pH 7.5; 10 µM RNA, 500 µM compound; covalent; about 40% less than wild type.

For assay [10], the system named is Tt-preQ1-RS(G5A) (RNA, riboswitch) CUGGAUCGCAGUAACCCCAGUUAACAAAACAAG
The assay can be described thus: UV photocrosslinking, denaturing PAGE. Particulars: 100 mM K+, 2 mM Mg2+; 50 mM Tris pH 7.5; 10 µM RNA, 500 µM compound; covalent; similar to wild type.

Assay [11] deals with Tt-preQ1-RS(G11A) (RNA, riboswitch) CUGGGUCGCAAUAACCCCAGUUAACAAAACAAG
As to the kind of experiment: UV photocrosslinking, denaturing PAGE. To be noted: 100 mM K+, 2 mM Mg2+; 50 mM Tris pH 7.5; 10 µM RNA, 500 µM compound; covalent; similar to wild type.

In assay [12] the test system is Bs-preQ1-RS full length (RNA, riboswitch) GCGGGAGAGGUUCUAGCUACACCCUCUAUAAAAAACUAGGACGAGCUGUAUCCUUGGAUACGGCCUUUU
As to the kind of experiment: UV photocrosslinking, TAMRA click labelling, PAGE. To be noted: 100 mM K+, 2 mM Mg2+; 50 mM Tris pH 7.5, 5% DMSO; 1 µM RNA, 250 µM compound; covalent.

Assay [13] deals with Ss-preQ1-RS (RNA, riboswitch) AGAGGUUCCUAGCUGAUACCCUCUAUAAAAAACUA
As to the kind of experiment: competition of photocrosslinking, PAGE. Particulars: 100 mM K+, 2 mM Mg2+; 50 mM Tris pH 7.5; probe 11 (250 µM) displaced by 125-1250 µM PreQ1.

Assay [14] relates to Bs-preQ1-RS full length (RNA, riboswitch) GCGGGAGAGGUUCUAGCUACACCCUCUAUAAAAAACUAGGACGAGCUGUAUCCUUGGAUACGGCCUUUU
The assay can be described thus: competition of photocrosslinking, TAMRA click labelling, PAGE. Particulars: 100 mM K+, 2 mM Mg2+; probe 11 (250 µM) displaced by 500-1000 µM PreQ1, in MCF-7 total RNA.

Assay [15] has as its system Ss-preQ1-RS (RNA, riboswitch) AGAGGUUCCUAGCUGAUACCCUCUAUAAAAAACUA
As to the kind of experiment: UV photocrosslinking, MALDI-TOF. Particulars: 100 mM K+, 2 mM Mg2+; 10 µM RNA, 500 µM compound; covalent.

Each structure is given as a SMILES string.

Turning to `C#CCCC1(CCC(=O)NCc2c[nH]c3nc(N)[nH]c(=O)c23)N=N1`, the “% Crosslink efficiency” value in assay [1] is 39.9 ± 5.3%.
On to `C#CCCC1(CCNCc2c[nH]c3nc(N)[nH]c(=O)c23)N=N1`, for which the apparent dissociation constant in [2] (about 50 x K of PreQ1) was determined as 8.25 ± 2.56 µM; in [3] (about 50 x K of PreQ1), 11.03 ± 2.98 µM. Further, the binding entry in assay [4] was “yes”; in assay [5] it was “yes”; in [6], “no”; in assay [7] it was “no”; in [8], “yes”; in assay [9], “yes”. Moreover, the binding entry in assay [10], in assay [11] and in assay [12] was “yes” throughout. Moreover, the “% Crosslink efficiency” value in assay [1] was 31.3 ± 2.9%.
Turning to `CC1(CCC(=O)NCc2c[nH]c3nc(N)[nH]c(=O)c23)N=N1`, the “% Crosslink efficiency” value in [1] worked out at 49.2 ± 3.2%.
Consider `NCc1c[nH]c2nc(N)[nH]c(=O)c12`, for which the apparent dissociation constant in assay [2] is 0.243 ± 0.01639 µM; in [3], 0.193 ± 0.04523 µM. Also, the binding entry in assay [13] and in assay [14] was “yes” throughout.
Turning to `Nc1nc2[nH]cc(CNCCC3(CCc4cn(CCOCCOCCOCCNC(=O)CCCC[C@@H]5SC[C@@H]6NC(=O)N[C@@H]65)nn4)N=N3)c2c(=O)[nH]1`, the binding result in assay [15] was “yes”.
For `Nc1nc2[nH]cc(CNCCOCCOCCNCc3ccc(C4(C(F)(F)F)N=N4)cc3)c2c(=O)[nH]1`, in assay [1], the “% Crosslink efficiency” value came to 22.0 ± 2.2%.
On the same count and under the same terms, next, `Nc1nc2[nH]cc(CNCCOCCOCCOCCNCc3ccc(C4(C(F)(F)F)N=N4)cc3)c2c(=O)[nH]1`: 19.4 ± 4.4%.
Regarding `Nc1nc2[nH]cc(CNCc3ccc(C4(C(F)(F)F)N=N4)cc3)c2c(=O)[nH]1`, in assay [1] (trace only), the binding entry was “weak”.

The record behind these values is paper PMC8494917 (2021).
